# In patent publication EP4538258A1, “IMIDAZOLIDINYL VANILLIC ACID ETHER DERIVATIVE AND USE THEREOF” (Hefei Institute of Pharmaceutical Industry Co., Ltd., priority 2022, dated 2023):
# Counter-ions that a name gives are not always drawn. Like-named read-outs stand apart in the source and are kept apart here.
# Assays:
# [1] = test system: arteriovenous bypass thrombi; assay: Antithrombotic activity in vivo: arteriovenous bypass thrombosis in rats; set-up: species or system SD rats; conditions: single gavage 15 mg/kg; for inhibition at 15 mg/kg: Rattus norvegicus, po, vs blank control; for Thrombus wet weight: 1 h after administration, blood flow 15 min; for Thrombus wet weight / Thrombus dry weight: x±s, n=8; for Thrombus dry weight: thread dried at 70°C
# Procedure: 104 SD rats (purchased from Weitong Lihua Experimental Animal Technology Co., Ltd., certificate number: 20211103Aazz0619000910), male, weighing 180-220 g, were randomly divided into 13 groups according to body weight after 7 days of adaptive feeding, with 8 rats in each group, namely, normal control group, compound A group, compound A methyl ester group, and Example 1-10 compound groups respectively. Each group was given corresponding drugs by gavage (dosage was 15 mg/kg), and the normal control group was given an equal volume of solvent, all of which were given by single gavage. One hour after the last administration, the rats were anesthetized with 3% chloral hydrate intraperitoneally, and the right common carotid artery and left external jugular vein were isolated in a supine position. A polyethylene tube was taken with an inner diameter of 1.5 mm and a length of 10 cm, a 6 cm long silk thread (preweighed) was inserted into it, and the polyethylene tube was filled with normal saline solution of heparin (50 U/ml). One end of the polyethylene tube was inserted into the left external jugular vein, heparin (50 U/kg) was injected, and the other end was inserted into the right common carotid artery. After blood flow was opened for 15 minutes, the blood flow was interrupted and the silk thread was quickly taken out and weighed. The total weight minus the original silk thread weight was the wet weight of the thrombus. The silk thread was placed in an oven for drying at 70°C. The dry weight of the thrombus was obtained by weighing the silk thread minus the original silk thread weight, and the inhibition rate was calculated. [formula] [formula]
# [2] = Pharmacokinetics in vivo in rats after gavage; set-up: species or system SD male rats; conditions: rat, p.o. 15 mg/kg (calculated as Compound A), mean value
# Procedure: Eighteen SD male rats (purchased from Weitong Lihua Experimental Animal Technology Co., Ltd., certificate number: 20211103Aazz0619000910), weighing 240-280 g, were randomly divided into 6 groups, with 3 rats in each group. The animals were fasted overnight before administration. On the day of administration, the compounds of Examples 3, 4, 5, 6, Compound A, and Compound A methyl ester were gavaged to the animals in each groups respectively, and the dosage was 15 mg/kg (calculated as Compound A). Before administration and 0.25, 0.5, 1, 2, 4, 6, 8, and 24 h after administration, 0.15 mL of blood was collected from the animals through the jugular sinus and placed in an EDTA-K2 anticoagulant tube containing 3 µL of dichlorvos aqueous solution (10 mg/mL). After centrifugation, plasma was collected, and was placed in the sample, and then 10 µL of plasma sample was taken, 500 µL of acetonitrile containing IS (verapamil 5 ng·mL^-1, glibenclamide 50 ng·mL^-1, tolbutamide 200 ng·mL^-1, and diclofenac 200 ng·mL^-1) was added, vortexed for 10 min, and then centrifuged at 3700 rpm for 10 min, and then 70 µL of supernatant and 70 µL of water were added, and vortexed for 10 min. An aliquot of 2 µL of the mixture was injected into the LC-MS/MS system (Triple Quad 5500+: LC-MS-MS-022) to measure blood concentration of the compounds. […]
# [3] = read-out: Inhibition rate (thrombus dry weight)
# [4] = read-out: Inhibition rate (thrombus wet weight)
Structure (SMILES),"inhibition at 15 mg/kg [1, 3]","inhibition at 15 mg/kg [1, 4]",Thrombus wet weight [1],Thrombus dry weight [1],MRTo-t [2]
"COc1cc(C(=O)OC(C)C)ccc1OCCn1ccnc1.Cl [Example 2, isopropyl 4-(2-(1H-imidazol-1-yl)ethoxy)-3-methoxybenzoate hydrochloride]",54.8%,48.3%,52.3±10.5^★★**## mg,15.4±5.0^★★*## mg,–
"CCCOC(=O)c1ccc(OCCn2ccnc2)c(OC)c1 [Example 1, propyl 4-(2-(1H-imidazol-1-yl)ethoxy)-3-methoxybenzoate]",52.9%,45.9%,54.8±12.7^★★*## mg,16.0±3.4^★★*## mg,–
"COc1cc(C(=O)Nc2ccc(C[C@@H](N)C(=O)O)cc2)ccc1OCCn1ccnc1 [Example 8, (R)-3-(4-(4-(2-(1H-imidazol-1-yl)ethoxy)-3-methoxybenzamido)phenyl)-2-propionic acid hydrochloride]",57%,48.6%,52.0±13.5^★★**## mg,14.6±3.8^★★**## mg,–
"COc1cc(C(=O)Oc2ccc(C[C@H](N)C(=O)O)cc2)ccc1OCCn1ccnc1.Cl [Example 9, (S)-4-(4-(2-(1H-imidazol-1-yl)ethoxy)-3-methoxybenzoyloxy)phenylalanine hydrochloride]",57.4%,49.4%,51.1±12.7^★★**## mg,14.5±6.2^★★**## mg,–
"COc1cc(C(=O)OCOC(=O)OC(C)C)ccc1OCCn1ccnc1 [Example 5, ((isopropoxycarbonyl)oxy)methyl-4-(2-(1H -imidazol-1-yl)ethoxy)-3-methoxybenzoate]",55.9%,53.5%,47.0±8.7^★★**## mg,15.0±4.5^★★*## mg,–
"COc1cc(C(=O)OC(C)OC(C)=O)ccc1OCCn1ccnc1 (stereo not drawn) [Example 6, 1-acetoxyethyl-4-(2-(1H-imidazol-1-yl)ethoxy)-3-methoxybenzoate]",58.1%,55.4%,45.1±8.6^★★**## mg,14.3±5.0^★★**## mg,–
"COc1cc(C(=O)OCCCCCC(=O)O)ccc1OCCn1ccnc1 [Example 3, 6-(4-(2-(1H -imidazol-1-yl)ethoxy)-3-methoxybenzoyloxy)hexanoic acid]",64%,53.3%,47.3±6.3^★★**## mg,12.3±5.7^★★**## mg,–
"COC(=O)c1ccc(OCCn2ccnc2)c(OC)c1 [Compound A methyl ester, reference compound]",32.4%,29.4%,71.3±8.7^★★ mg,23.0±8.2^★★ mg,6.5 h
"COc1cc(C(=O)Oc2ccc(C[C@@H](N)C(=O)O)cc2)ccc1OCCn1ccnc1.Cl [Example 10, (R)-4-(4-(2-(1H-imidazol-1-yl)ethoxy)-3-methoxybenzoyloxy)phenylalanine hydrochloride]",55.1%,47.5%,53.1±11.8^★★**## mg,15.3±2.8^★★*## mg,–
COc1cc(C(=O)O)ccc1OCCn1ccnc1 [Compound A],–,–,–,–,5.4 h
"COc1cc(C(=O)Nc2ccc(C[C@H](N)C(=O)O)cc2)ccc1OCCn1ccnc1.Cl [Example 7, (S)-4-(4-(2-(1H-imidazol-1-yl)ethoxy)-3-methoxybenzamido)phenylalanine hydrochloride]",52.6%,46.2%,54.4±9.8^★★*## mg,16.1±3.3^★★*## mg,–
